This is an account of results in patent US20150018566A1, “TUBULIN BINDING AGENTS” (priority 2011, published 2015).

One test concerns the target T1, tubulin (Sus scrofa, UniProt P02550+P02554).
T1 construct: The procedure used is modified from Shelanski et al; from tissue
Description: Tubulin assembly assay (tubulin binding). It is filed as biochemical, porcine. The conditions noted are these: under the assay conditions used.

Test [1] relates to rat aortic ring cultures. Put plainly: Aortic ring assay (anti-vascular model). Particulars: 1 μM. In kind it is cell-based. The protocol:
The aortic ring assay is an ideal assay for testing the activity of anti-vascular, anti-angiogenic or pro-angiongenic agents. This method was originally developed and modified by Nicosia. The aorta can be excised from mice or rats, cut into ˜1 mm rings and cultured in either basement membrane matrix (matrigel) or collagen gel. Following incubation for several days the rings start to generate outgrowths of branching microvessels which are lined by endothelial cells and supported by pericytes and fibroblasts. The angiogenic response of the aorta is a self-limited process regulated by endogenous growth factors including bFGF [13], VEGF [14], PDGF [15] and angiopoietins.
The rat aorta model is an ex vivo assay which combines advantages of both in vitro and in vivo models. The process of angiogenesis takes place in a defined culture environment which can be easily adapted to different experimental conditions according to the requirement of the study. The cells of the aortic outgrowth have not been modified by repeated passages in culture and thus newly formed microvessels reproduce the characteristics of the vasculature formed during angiogenesis in vivo [17-18]. There is no influx of leukocytes from circulating blood therefore inflammatory complications which affect the interpretation of in vivo assays are minimised. For the purpose of this study, rat aortic ring cultures were used to investigate firstly the anti-vascular and then the anti-angiogenic activity of test compounds.
The successful growth of the aortic rings into a mircovessel network was dependent on several factors including (i) the amount of periaortic fibroadipose tissue left on the ring, (ii) the orientation of the ring, the way which the ring was embedded into the matrigel and (iii) the volume of the matrigel used.
The aortic ring assay is an ex vivo assay which allows the analyst to examine the inhibition/stimulation of angiogenesis as well as the breakdown of existing vasculature. Basement membrane matrix (matrigel) was stored at −20° C. Prior to use, matrigel vial was placed on ice and kept at 4° C. overnight in order to thaw. The matrigel was kept on ice at all times for the duration of the experiment. Aortic rings were obtained by excising the thoracic aorta of 5-10 weeks old Wistar male rats and removing the fibroadipose tissue from the aortic wall. The rings were obtained by cross-sectioning the aorta at ˜1 mm intervals, removed any blood clots by washing several times with EBM-2. Matrigel (80 μl) was placed uniformly in each well of a 12-well plate and the aortic rings were then placed individually in between the matrigel layer with the lumen perpendicular to the surface of the plate. The matrigel solution was allowed to solidify for 30-40 minutes at 37° C. and 1 ml EBM-2 medium (supplemented with 2% FBS and […] streptomycin/penicillin solution) was added to each culture. The aortic rings were kept in a humidified CO2 incubator at 37° C. and fresh medium was replaced three times a week starting from day 3. Once an established microvessel network was developed (day 7-9), test compounds diluted in EBM-2 medium (1 ml) were added to each well and incubated at 37° C. for 24 h. The cultures were monitored for microvessel breakdown over time and images were taken 1 h, 4 h and 24 h after treatment using an Olympus CKX41 inverted microscope. Images were captured with an E-330 SLR camera system and processed using Cell̂ A software. Each compound concentration was tested in duplicate. Results were presented as images showing the microvessel breakdown at each time point.

Test [2] has as its system rat aortic ring cultures. Put plainly: Aortic ring assay (anti-angiogenic effect). In kind it is cell-based.

T1 sequence (P02550 whole entry): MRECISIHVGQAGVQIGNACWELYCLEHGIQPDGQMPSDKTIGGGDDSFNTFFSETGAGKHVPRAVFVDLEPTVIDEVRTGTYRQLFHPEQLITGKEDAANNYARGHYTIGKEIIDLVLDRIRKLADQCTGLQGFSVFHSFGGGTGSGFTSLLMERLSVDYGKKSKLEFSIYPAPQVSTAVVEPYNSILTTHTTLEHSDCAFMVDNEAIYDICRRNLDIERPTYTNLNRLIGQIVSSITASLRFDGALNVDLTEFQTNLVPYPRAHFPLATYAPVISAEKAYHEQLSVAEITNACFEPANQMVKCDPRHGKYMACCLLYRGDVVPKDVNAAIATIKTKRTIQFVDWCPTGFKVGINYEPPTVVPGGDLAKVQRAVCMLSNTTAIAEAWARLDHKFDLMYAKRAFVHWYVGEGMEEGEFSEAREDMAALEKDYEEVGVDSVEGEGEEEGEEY
T1 sequence (P02554 whole entry): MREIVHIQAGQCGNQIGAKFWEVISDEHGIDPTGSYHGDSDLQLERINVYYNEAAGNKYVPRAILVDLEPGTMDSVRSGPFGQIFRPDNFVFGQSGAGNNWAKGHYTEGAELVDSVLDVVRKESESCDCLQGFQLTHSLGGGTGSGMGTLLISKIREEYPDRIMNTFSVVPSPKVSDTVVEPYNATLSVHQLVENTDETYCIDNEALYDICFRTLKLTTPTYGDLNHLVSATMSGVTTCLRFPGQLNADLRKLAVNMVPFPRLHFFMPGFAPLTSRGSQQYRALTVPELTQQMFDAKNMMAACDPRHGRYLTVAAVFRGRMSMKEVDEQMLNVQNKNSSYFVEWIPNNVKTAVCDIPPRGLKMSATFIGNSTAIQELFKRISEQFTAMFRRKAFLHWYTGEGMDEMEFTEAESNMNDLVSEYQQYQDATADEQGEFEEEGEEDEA
Description for tubulin: The buffer was prepared with deionised water and the pH of the solution was adjusted to 6.6 by the drop-wise addition of 10M aq. NaOH. The buffer was stored at 4° C. prior to use.
Equipment: A Fluostar Optima 96 well plate reader equipped with a thermostat capability.
The tubulin assembly was followed by observing an increase in optical density of a tubulin solution at 350 nm at 37° C. Typically 1 ml of tubulin solution was diluted with EB (5 ml) and GTP solution (25 μl, 5 μl per ml of EB added) to the mixture. The mixture was vortexed for ten seconds in order to ensure the homogeneity of the mixture. 100 μl of the resultant solution was pipetted into a well in the 96 well plate. The increase in optical density of the tubulin solution was measured over a time course of ten minutes at 350 nm and 37° C. […] Accordingly, adjustments were made to the quantity of buffer added in order to obtain a protein concentration within the desired range. […] Tubulin solution (1000 was subsequently pipetted into each of the same three wells. The plate was immediately incubated at 37° C. and was subjected to orbital shaking for five seconds. The UV absorption was measured at 350 nm over a time course of ten minutes. The maximum slope of the resulting curve was measured. The slope of the blank represents the maximum rate of tubulin polymerisation.

Regarding `COc1ccc(C2=CC(=O)CCc3cc(OC)c(OC)c(OC)c32)cc1O` [Compound 12, 9-(3-hydroxy-4-methoxyphenyl)-1,2,3-trimethoxy-6,7-dihydro-5H-benzo[a]cyclohepten-7-one], the “tubulin binding activity (in words)” value on tubulin is “inactive”.
In the case of `COc1ccc(C2=C/C(=N/OCC(=O)NO)CCc3c2cc(OC)c(OC)c3OC)cc1N` [Compound 30, 2-[9-(3-Amino-4-methoxy-phenyl)-2,3,4-trimethoxy-5,6-dihydro-benzocyclohepten-7-ylideneaminooxy]-N-hydroxy-acetamide], the “anti-vascular effect on established microvessel network” value is recorded as “satisfactory activity” with rat aortic ring cultures [1] (4 h of treatment) and “clear microvessel disruption” in the test with rat aortic ring cultures [1] (24 h incubation). Further, in the test with rat aortic ring cultures [2] (0.1 μM), the “anti-angiogenic effect (microvessel area)” value is reported as “negligible reduction”. Besides, the “anti-angiogenic effect (microvessel density)” value with rat aortic ring cultures [2] (1 μM) is reported as “significantly (p<0.01) lower microvessel density”.
